Laboratory results published in patent US20100113507A1, “3-Tetrazolyl Indazoles, 3-Tetrazolyl Pyrazolopyridines, and use Thereof” (BAYER HEALTHCARE AG, priority 2006, published 2010).

What was measured:
[1] = system: aorta rings; test: Vasorelaxant effect in vitro (phenylephrine-contracted aorta rings); type: cell-based, Rabbits; details: Oryctolagus cuniculus; rabbit aorta rings, contraction induced by phenylephrine, 37° C., 0.1% DMSO; read-out: IC50 (concentration necessary to reduce the level of contraction by 50%)
Protocol: Rabbits are stunned by a blow to the back of the neck and are exsanguinated. The aorta is removed, freed of adherent tissue, divided into rings 1.5 mm wide and placed singly in 5 ml organ baths with carbogen-gassed Krebs-Henseleit solution of the following composition (in each case mM): NaCl: 119; KCl: 4.8; CaCl2×2H2O: 1; MgSO4×7H2O: 1.4; KH2PO4: 1.2; NaHCO3: 25; glucose: 10, under an initial tension at 37° C. The force of contraction is detected with Statham UC2 cells, amplified and digitized via A/D converters (DAS-1802 HC, Keithley Instruments Munich), and recorded in parallel on chart recorders. A contraction is induced by adding phenylephrine to the bath cumulatively in increasing concentration. After several control cycles, the substance to be investigated is added in each further run in increasing dosage each time, and the level of contraction is compared with the level of contraction achieved in the last preceding run. The concentration necessary to reduce the level of contraction by 50% (IC50) is calculated therefrom. The standard application volume is 5 μl and the DMSO content in the bath solution corresponds to 0.1%.

[2] = reported by A. Straub et al., Bioorg. Med. Chem. Lett. 11, 781-784 (2001); cited from earlier work

**Q.** With c1cnc2c(c1)c(-c1nnn[nH]1)nn2CC1CCCCCC1 [Example 1, 1-(Cycloheptylmethyl)-3-(1H-tetrazol-5-yl)-1H-pyrazolo[3,4-b]pyridine] as the compound, how does the IC50 [1] read?
**A.** 2 µM

**Q.** Which vasorelaxant effect [2] does the source give for Fc1ccccc1Cn1nc(-c2nnn[nH]2)c2cccnc21 [1-(2-fluorobenzyl)-3-(1H-tetrazol-5-yl)-1H-pyrazolo[3,4-b]pyridine] here?
**A.** moderately vasorelaxant effect

**Q.** Which IC50 [1] does the source give for Clc1ccc(Cn2nc(-c3nnn[nH]3)c3cccnc32)s1 [Example 7, 1-[(5-Chloro-2-thienyl)methyl]-3-(1H-tetrazol-5-yl)-1H-pyrazolo[3,4-b]pyridine] here?
**A.** 6.1 µM

**Q.** For Fc1cccc(Cn2nc(-c3nnn[nH]3)c3cccnc32)c1F [Example 4, 1-(2,3-Difluorobenzyl)-3-(1H-tetrazol-5-yl)-1H-pyrazolo[3,4-b]pyridine], which IC50 [1] is on record?
**A.** 4.5 µM
